Test results published in publication PMC6271590, “Phenoxyacetohydrazide Schiff Bases: β-Glucuronidase Inhibitors” (Molecules, 2014).
Several values for one entry are separate records, joined by “and”; a condition that tells them apart may be missing. Identical values can stand only once.

target: T1, β-Glucuronidase (E.C. 3.2.1.31 from bovine liver) (Bos taurus, UniProt A3KMY8); assay: In vitro β-glucuronidase inhibition assay (p-nitrophenyl-β-D-glucuronide, absorbance at 405 nm); format: biochemical; settings: bovine liver enzyme; substrate p-nitrophenyl-β-D-glucuronide; 37 °C, 30 min; triplicate; ± SEM; NA = Not active
T1 construct: β-Glucuronidase (E.C. 3.2.1.31 from bovine liver, G-0251); purchased Sigma Chemical Co. (St. Louis, MO, USA) G-0251; host or cells: bovine liver (tissue-derived preparation)
T1 sequence (A3KMY8 1-652): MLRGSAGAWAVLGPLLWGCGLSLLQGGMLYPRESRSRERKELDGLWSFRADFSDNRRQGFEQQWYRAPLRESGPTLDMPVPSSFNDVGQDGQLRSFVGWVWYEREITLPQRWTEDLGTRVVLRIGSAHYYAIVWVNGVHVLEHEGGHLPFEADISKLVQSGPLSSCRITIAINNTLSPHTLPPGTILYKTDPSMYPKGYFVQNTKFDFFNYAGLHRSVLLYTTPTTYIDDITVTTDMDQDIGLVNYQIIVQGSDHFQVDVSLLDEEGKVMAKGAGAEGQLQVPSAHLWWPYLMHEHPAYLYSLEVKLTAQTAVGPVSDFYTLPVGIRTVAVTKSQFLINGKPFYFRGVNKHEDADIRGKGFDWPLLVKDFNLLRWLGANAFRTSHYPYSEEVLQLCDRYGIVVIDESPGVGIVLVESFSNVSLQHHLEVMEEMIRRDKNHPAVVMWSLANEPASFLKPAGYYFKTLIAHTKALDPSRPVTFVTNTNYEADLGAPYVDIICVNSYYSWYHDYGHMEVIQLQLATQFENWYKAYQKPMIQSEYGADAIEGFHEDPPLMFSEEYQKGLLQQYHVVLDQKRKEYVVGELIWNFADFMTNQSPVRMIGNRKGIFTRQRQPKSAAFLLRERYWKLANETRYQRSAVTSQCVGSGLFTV
Procedure: Synthetic acyl hydrazides Schiff bases 1–28 were screened for their in vitro potential as β-glucoronidase inhibitors. The in vitro β-glucornidase inhibitory potential was evaluated by using the literature protocol.
β-Glucuronidase (E.C. 3.2.1.31 from bovine liver, G-0251) and p-nitrophenyl-β-D-glucuronide (N-1627) were purchased From Sigma Chemical Co. (St. Louis, MO, USA). Anhydrous Na2CO3 and all other reagents of standard grade were obtained from E. Merck. The anhydrous EtOH and CHCl3 used in the experiments were dried employing the standard methods. All other solvents and reagents like the benzoyl chloride were of standard grade.
β-D-Glucuronidase inhibition was determined by measuring the absorbance of the p-nitrophenol which is produce from the substrate at 405 nm. The total reaction volume was 250 µL. The reaction mixture contains 5 µL of test compound solution, 185 µL of 0.1 M acetate buffer, and 10 µL of enzyme, and it was incubated at 37 °C for 30 min. The plates were read on a multiplate reader at 405 nm after the addition of 50 µL of 0.4 mM p-nitrophenyl-β-D-glucuronide. All assays were performed in triplicate.

Row | IC50 | Compound
1 | 9.2 ± 0.32 µM | COc1ccccc1C=CC=NNC(=O)COc1ccc(Cl)cc1C [Compound 1]
2 | 9.47 ± 0.16 µM | Cc1cc(Cl)ccc1OCC(=O)NN=Cc1ccccc1[N+](=O)[O-] [Compound 5, 2-(4-Chloro-2-methylphenoxy)-N'-[(2-nitrophenyl)methylidene]acetohydrazide]
3 | 14.7 ± 0.19 µM | Cc1cc(Cl)ccc1OCC(=O)NN=Cc1ccc(Cl)cc1 [Compound 7, 2-(4-Chloro-2-methylphenoxy)-N'-[-(4-chlorophenyl)methylidene]acetohydrazide]
4 | 19 µM and 19.6 µM | Cc1cc(Cl)ccc1OCC(=O)NN=Cc1ccccc1F [Compound 11, 2-(4-Chloro-2-methylphenoxy)-N'-[-(2-fluorophenyl)methylidene]acetohydrazide]
5 | 30.7 ± 1.49 µM | Cc1cc(Cl)ccc1OCC(=O)NN=Cc1ccsc1 [Compound 12, 2-(4-Chloro-2-methylphenoxy)-N'-[3-thienylmethylidene]acetohydrazide]
6 | 12 ± 0.16 µM | Cc1cc(Cl)ccc1OCC(=O)NN=Cc1cccc(O)c1O [Compound 15, 2-(4-Chloro-2-methylphenoxy)-N'-[-(2,3-dihydroxyphenyl)methylidene]acetohydrazide]
7 | 13.7 ± 0.4 µM | Cc1cc(Cl)ccc1OCC(=O)NN=Cc1cccc2ccccc12 [Compound 21, 2-(4-Chloro-2-methylphenoxy)-N'-[-1-naphthylmethylidene]acetohydrazide]
8 | 22 ± 0.14 µM | Cc1cc(Cl)ccc1OCC(=O)NN=Cc1ccc2ccccc2c1 [Compound 22, 2-(4-Chloro-2-methylphenoxy)-N'-[-2-naphthylmethylidene]acetohydrazide]

same assay, conditions: fold better than standard by IC50

Row | activity relative to the standard D-saccharic acid-1,4-lactone | Compound
9 | fivefold better than the standard | COc1ccccc1C=CC=NNC(=O)COc1ccc(Cl)cc1C [Compound 1]

same assay, conditions: qualitative statement

Row | β-glucuronidase inhibitory activity in words | Compound
10 | excellent activity | COc1ccccc1C=CC=NNC(=O)COc1ccc(Cl)cc1C [Compound 1]
11 | inactive | COc1ccc(C=CC=NNC(=O)COc2ccc(Cl)cc2C)cc1 [Compound 2]
12 | excellent activity | Cc1cc(Cl)ccc1OCC(=O)NN=Cc1ccccc1[N+](=O)[O-] [Compound 5, 2-(4-Chloro-2-methylphenoxy)-N'-[(2-nitrophenyl)methylidene]acetohydrazide]
13 | inactivity | Cc1cc(Cl)ccc1OCC(=O)NN=Cc1cccc([N+](=O)[O-])c1 [Compound 6, 2-(4-Chloro-2-methylphenoxy)-N'-[(3-nitrophenyl)methylidene]acetohydrazide]
14 | excellent activity | Cc1cc(Cl)ccc1OCC(=O)NN=Cc1ccc(Cl)cc1 [Compound 7, 2-(4-Chloro-2-methylphenoxy)-N'-[-(4-chlorophenyl)methylidene]acetohydrazide]
15 | completely inactive | Cc1cc(Cl)ccc1OCC(=O)NN=Cc1ccc(Cl)c(Cl)c1 [Compound 9, 2-(4-Chloro-2-methylphenoxy)-N'-[(3,4-dichlorophenyl)methylidene]acetohydrazide]
16 | completely inactive | Cc1cc(Cl)ccc1OCC(=O)NN=Cc1c(Cl)cccc1Cl [Compound 10, 2-(4-Chloro-2-methylphenoxy)-N'-[(2,6-dichlorophenyl)methylidene]acetohydrazide]
17 | excellent activity | Cc1cc(Cl)ccc1OCC(=O)NN=Cc1ccccc1F [Compound 11, 2-(4-Chloro-2-methylphenoxy)-N'-[-(2-fluorophenyl)methylidene]acetohydrazide]
18 | excellent activity | Cc1cc(Cl)ccc1OCC(=O)NN=Cc1ccsc1 [Compound 12, 2-(4-Chloro-2-methylphenoxy)-N'-[3-thienylmethylidene]acetohydrazide]
19 | completely inactive | Cc1cc(Cl)ccc1OCC(=O)NN=Cc1ccco1 [Compound 13, 2-(4-Chloro-2-methylphenoxy)-N'-[-2-furylmethylidene]acetohydrazide]
20 | completely inactive | Cc1ccc(C=NNC(=O)COc2ccc(Cl)cc2C)o1 [Compound 14, 2-(4-Chloro-2-methylphenoxy)-N'-[-(5-methyl-2-furyl)methylidene]acetohydrazide]
21 | excellent activity | Cc1cc(Cl)ccc1OCC(=O)NN=Cc1cccc(O)c1O [Compound 15, 2-(4-Chloro-2-methylphenoxy)-N'-[-(2,3-dihydroxyphenyl)methylidene]acetohydrazide]
22 | completely inactive | Cc1cc(Cl)ccc1OCC(=O)NN=Cc1ccc(O)c(O)c1 [Compound 16, 2-(4-Chloro-2-methylphenoxy)-N'-[-(3,4-dihydroxyphenyl)methylidene]acetohydrazide]
23 | completely inactive | CC(=NNC(=O)COc1ccc(Cl)cc1C)c1ccc(O)cc1 [Compound 17, 2-(4-Chloro-2-methylphenoxy)-N'-[1-(4-hydroxyphenyl)ethylidene]acetohydrazide]
24 | completely inactive | Cc1cc(Cl)ccc1OCC(=O)NN=Cc1cccc(O)c1 [Compound 18, 2-(4-Chloro-2-methylphenoxy)-N'-[(3-hydroxyphenyl)methylidene]acetohydrazide]
25 | completely inactive | CC(=NNC(=O)COc1ccc(Cl)cc1C)c1c(O)cc(O)cc1O [Compound 19, 2-(4-Chloro-2-methylphenoxy)-N'-[1-(2,4,6-trihydroxyphenyl)ethylidene]acetohydrazide]
26 | completely inactive | Cc1cc(Cl)ccc1OCC(=O)NN=Cc1ccc(O)cc1 [Compound 20, 2-(4-Chloro-2-methylphenoxy)-N'-[(4-hydroxyphenyl)methylidene]acetohydrazide]
27 | excellent activity | Cc1cc(Cl)ccc1OCC(=O)NN=Cc1cccc2ccccc12 [Compound 21, 2-(4-Chloro-2-methylphenoxy)-N'-[-1-naphthylmethylidene]acetohydrazide]
28 | excellent activity | Cc1cc(Cl)ccc1OCC(=O)NN=Cc1ccc2ccccc2c1 [Compound 22, 2-(4-Chloro-2-methylphenoxy)-N'-[-2-naphthylmethylidene]acetohydrazide]
